Reference: US8859578B2, “Natural product derivatives with antiprotozoal activity” (Radix Pharmaceuticals, Inc., priority 2012, dated 2014)
Where “and” joins values, the source holds several entries; their conditions need not be identical. Equal entries are not always repeated. Where two headings read alike, the source gives them in different places.

Assays:
[1] = test system: Liver Stage of P. yoelii yoelii; experiment: In vitro liver-stage antimalarial efficacy; assay type: cell-based; conditions: Plasmodium yoelii
Experimental: In Vitro Liver-Stage Antimalarial Efficacy Evaluation. Any new desirable antimalarial drug should be broad spectrum: it should be active against both the blood stage and the liver stage of the parasite. New compounds were assessed on the Plasmodium yoelii liver stage in vitro. The liver stage of P. yoelii is a parasite of rodent extensively used as an experimental model for studying the initial phase of the malaria infection.

rodent P. berghei = experiment: Antimalarial potency (MCD, MCureD) and therapeutic indices, rodent P. berghei; assay type: in vivo
Experimental: Antimalarial potency was measured by determination of the MCD (minimum clearance dose), a commonly used efficacy measurement. The primary therapeutic indices, which were obtained by using the MCDs as the effective parameters, were calculated. A secondary therapeutic indices measure of antimalarial potency was determined by use of the dose for the MCureD (minimum curative dose).

P. falciparum V1S = experiment: microbe, parasite or virus in culture; assay type: cell-based; conditions: Plasmodium falciparum
Experimental: (§1) In Vitro Blood Stage Antimalarial Efficacy Evaluation. New compounds were tested against a panel of strains of P. falciparum.
(§2) Test compounds were initially dissolved in DMSO and diluted 400 fold in RPMI 1640 culture medium supplemented with 25 mM Hepes, 32 mM NaHCO3 and 10% Albumax I (Gibco, NY). These solutions were subsequently serially diluted two-fold with a Beckman Biomek® 1000 Robot (Fullerton, Calif.) over 11 different concentrations. The parasites were exposed to serial dilutions of each compound for 48 hrs and incubated at 37° C. with 5% O2, 5% CO2 and 90% N2 prior to the addition of [^3H]hypoxanthine. After a further incubation of 18 hrs, parasite DNA was harvested from each microtiter well using Packard Filtermate™ 196 Harvester (Meriden, Conn.) onto glass filters. Uptake of [^3H]hypoxanthine was measured with a Packard TopCount Liquid Scintillation Counter (Packard Instrument Co.).

[2] = test system: Plasmodium cynomolgi sporozoite; experiment: Causal prophylactic activity in P. cynomolgi sporozoite-challenged Rhesus monkeys; assay type: in vivo; conditions: PO 15 mg/kg, 1 daily for 3 days
From the text: Two monkeys were used in each test group. The control animals developed parasitemia in about 10 days after inoculation of about 1×10^6 P. cynomolgi sporozoites harvested from Anopheles dirus. All the monkeys received three treatments, once a day for three consecutive days beginning a day before (−1, 0, +1) the sporozoites challenge. The control monkeys (group 1) received HECT and the experimental animals received testing compound by using 8 Fr., 15-in. long nasogastric tubes.

Plasmodium cynomolgi = experiment: Radical curative activity in relapsed Rhesus monkeys; assay type: in vivo; conditions: for Monkeys cured: co-administered with chloroquine, two monkeys; for Days post-treatment (to relapse): with CQ 10 mg/kg/day for 7 days, one value per monkey
Experimental: Compounds with antihypnozoite activity will delay the relapse or radically cure the infection. […] Relapse was expected in the control group. Relapse in the treated group indicates failure of the test compounds. […] Relapse in experimental animals and the second relapse of the control monkeys were treated with the standard 7 day oral CQ and primaquine (1.78 mg base/kg).

P. falciparum K1 = experiment: In vitro blood stage antimalarial activity, [3H]hypoxanthine uptake; assay type: cell-based; conditions: Plasmodium falciparum
Experimental: as §1, §2

P. falciparum TM6 = experiment: as above; assay type: cell-based; conditions: Plasmodium falciparum
Experimental: as §1, §2

P. falciparum TM4 = experiment: as above; assay type: cell-based; conditions: Plasmodium falciparum
Experimental: as §1, §2

P. falciparum 3D7 = experiment: as above; assay type: cell-based; conditions: Plasmodium falciparum
Experimental: as §1, §2

P. falciparum DD2 = experiment: as above; assay type: cell-based; conditions: Plasmodium falciparum
Experimental: as §1, §2

P. falciparum PH3 = experiment: as above; assay type: cell-based; conditions: Plasmodium falciparum
Experimental: as §1, §2

in vivo = conditions: Sprague-Dawley, rat, po
[3] = test system: chloroquine-resistant FVO strain of P. falciparum; experiment: Efficacy against blood stages of P. falciparum in Aotus monkeys; assay type: in vivo; conditions: oral for 3 days
From the text: In Vivo Efficacy Studies in Aotus Monkey Model. The monkeys selected for the study had active infections of the chloroquine-resistant FVO strain of P. falciparum.
Malaria-naive Panamanian owl monkeys (Aotus lemurinus lemurinus) were used as hosts for chioroquine-resistant P. falciparum. The chloroquine-resistant Vietnam Smith strain was used in the initial experiments. In subsequent studies, a recrudescent isolate from a Vietnam Smith strain infected Aotus monkey treated with chloroquine was used.
The inoculum size produced a parasitemia of at least 5×10^3/mm^3 by the fifth day postinoculation, at which time treatment was begun. Stock solutions of water-soluble drug were prepared at appropriate concentrations and maintained at 4° C. during the course of treatment. A suspension of water-insoluble drugs was prepared in 0.3% methylcellulose just prior to use. All drugs were administered by gastric intubation in a volume of 7.0 ml, followed by a 7.0-mi rinse with either water or 0.3% methylcellulose. Test drug was given orally for either three or seven consecutive days. […]
Giemsa-stained blood smears were prepared from all animals and examined daily beginning the day after inoculation until parasitemia was cleared and for at least seven days thereafter. […] Ten or less parasites on a thick blood film were recorded as <10. Parasitemia was enumerated and expressed as number of parasites/mm^3. […]

Plasmodium berghei = experiment: Oral prophylactic test in mice; assay type: in vivo

`COc1cc(NC(C)CCCN)c2ncccc2c1` (stereo not drawn) [Primaquine, reference compound] gave an IC50 [1] of 76 nM.
With `COc1cc2c(c3cc4c(nc13)C=C[C@@]1([C@H]3CC([C@H](O)[C@@H](N)C(C)C)OCO3)C=CCOC41)[C@@H]1OCOC[C@]1(C)N2` (stereo partly drawn) [Formula A] the “MCureD (minimum curative dose)” value (rodent P. berghei; administered orally) was 12.6 mg/kg, the IC50 (P. falciparum V1S) was 0.21 ± 0.03 nM and the “Delay of patency compared with untreated control monkeys” value [2] was “delayed patency of treated monkeys more than a month”. The “Parasite patency (days postinoculation)” value ([2]; one value per monkey, control 8 days, 15 mg/kg) was 42 days and 60 days, the Monkeys cured (Plasmodium cynomolgi; 15 mg/kg/day level) was “one out of two monkeys” and the Monkeys cured (Plasmodium cynomolgi; 30 mg/kg/day level) was “both monkeys”. The “Days post-treatment (to relapse)” value (Plasmodium cynomolgi; Rhesus monkeys, PO 15 mg/kg 1 daily for 3 days) was 44 days and no relapse, the “Days post-treatment (to relapse)” value (Plasmodium cynomolgi; Rhesus monkeys, PO 30 mg/kg 1 daily for 3 days) was “no relapse” and the IC50 (P. falciparum K1; read-out: IC50) was 0.35 ± 0.06 nM. It also gave an IC50 (P. falciparum TM6; read-out: IC50) of 0.27 ± 0.05 nM, an IC50 (P. falciparum TM4; read-out: IC50) of 0.41 ± 0.09 nM and an IC50 (P. falciparum 3D7; read-out: IC50) of 0.12 ± 0.03 nM. The IC50 (P. falciparum DD2; read-out: IC50) was 0.17 ± 0.04 nM, the IC50 (P. falciparum PH3; read-out: IC50) was 0.27 ± 0.05 nM and the NOAEL at 2 weeks (in vivo) was greater than 100 mg/kg/day. For the same compound, the MTD at 2 weeks (in vivo; MTD (maximum tolerated dose)) was greater than 500 mg/kg, the IC50 [1] was 6.2 nM and the “dosage needed to cure 50% of animals” value [3] was 2 mg/kg/day. For the same compound, the “dosage needed to cure 100% of animals” value [3] was 8 mg/kg/day, the “Mice infected and treated/Mice surviving day 60” value (Plasmodium berghei; day of treatment 1, dose 0.5 mg/kg oral) was 5/5 and the “Mice infected and treated/Mice surviving day 60” value (Plasmodium berghei; day of treatment 1, dose 2 mg/kg oral) was 5/5. For the same compound, the “Mice infected and treated/Mice surviving day 60” value (Plasmodium berghei; day of treatment 1, dose 8 mg/kg oral) was 5/5, the “Mice infected and treated/Mice surviving day 60” value (Plasmodium berghei; day of treatment 1, dose 32 mg/kg oral) was 5/5 and the “Mice infected and treated/Mice surviving day 60” value (Plasmodium berghei; day of treatment 2, dose 0.5 mg/kg oral) was 5/5. For the same compound, the “Mice infected and treated/Mice surviving day 60” value (Plasmodium berghei; day of treatment 2, dose 2 mg/kg oral) was 5/5, the “Mice infected and treated/Mice surviving day 60” value (Plasmodium berghei; day of treatment 2, dose 8 mg/kg oral) was 5/5 and the “Mice infected and treated/Mice surviving day 60” value (Plasmodium berghei; day of treatment 2, dose 32 mg/kg oral) was 5/5. The “Mice infected and treated/Mice surviving day 60” value (Plasmodium berghei; day of treatment −1, dose 0.5 mg/kg oral) was 5/5, the “Mice infected and treated/Mice surviving day 60” value (Plasmodium berghei; day of treatment −1, dose 2 mg/kg oral) was 5/5 and the “Mice infected and treated/Mice surviving day 60” value (Plasmodium berghei; day of treatment −1, dose 8 mg/kg oral) was 5/5. The “Mice infected and treated/Mice surviving day 60” value (Plasmodium berghei; day of treatment −1, dose 32 mg/kg oral) was 5/5, the “Mice infected and treated/Mice surviving day 60” value (Plasmodium berghei; day of treatment −2, dose 0.5 mg/kg oral) was 5/5 and the “Mice infected and treated/Mice surviving day 60” value (Plasmodium berghei; day of treatment −2, dose 2 mg/kg oral) was 5/5. For the same compound, the “Mice infected and treated/Mice surviving day 60” value (Plasmodium berghei; day of treatment −2, dose 8 mg/kg oral) was 5/5, the “Mice infected and treated/Mice surviving day 60” value (Plasmodium berghei; day of treatment −2, dose 32 mg/kg oral) was 5/5 and the “Protection from malaria (oral prophylactic activity)” value (Plasmodium berghei; mice, single dose of 0.5 mg/kg within 2 days pre-infection through 2 days post-infection) was “completely protected from malaria”.
In the case of `CCN(CC)Cc1cc(Nc2ccnc3cc(Cl)ccc23)ccc1O` [Amodiaquine], the IC50 (P. falciparum K1; read-out: IC50) is reported as 21.2 ± 2.1 nM.
For `CCN(CC)CCCC(C)Nc1ccnc2cc(Cl)ccc12` (stereo not drawn) [Chloroquine, reference compound], the “MCureD (minimum curative dose)” value (rodent P. berghei; administered orally) was “None”, the IC50 (P. falciparum V1S) was 152 ± 14.1 nM and the “Results (radical curative test)” value (Plasmodium cynomolgi; Rhesus monkeys, chloroquine alone, 10 mg/kg/day for 7 days) was “relapse”. The IC50 (P. falciparum K1) was 166 ± 19.3 nM, the IC50 (P. falciparum TM6) was 96.4 ± 6.9 nM and the IC50 (P. falciparum TM4) was 115 ± 12.7 nM. The IC50 (P. falciparum 3D7) was 9.7 ± 3.4 nM, the IC50 (P. falciparum DD2) was 45.8 ± 10.2 nM and the IC50 (P. falciparum PH3) was 33.4 ± 9.1 nM.
In the case of `C[C@H]1[C@H](OC(=O)CCC(=O)O)O[C@@H]2O[C@@]3(C)CC[C@H]4[C@H](C)CC[C@@H]1[C@@]24OO3` [Artesunate], the “MCureD (minimum curative dose)” value (rodent P. berghei; route of administration iv) is reported as 25.4 mg/kg.
